Consider one compound from patent publication US20100160359A1, “Modulators of Metabolism and the Treatment of Disorders Related Thereto” (ARENA PHARMACEUTICALS, INC., priority 2005, published 2010).

The target of series [1] is CYP2C9 (Homo sapiens, UniProt P11712). As to the kind of experiment: P450 inhibition screening assay, CYP2C9. Conditions: cDNA expressed human enzyme, fluorescent substrate DBF; read-out: IC50 against the CYP2C9 enzyme. It counts as in vitro ADME. The method, then: (§1) The P450 inhibition screening assay was performed in 96-well microtiter plates by using cDNA expressed human enzymes (CYP1A2, 2C9, 2C19, 2D6 and 3A4). […] The enzymatic reaction was initiated by adding individual P450 enzymes pre-mixed with P450-specific fluorescent substrates, and stopped by adding acetonitrile (or NaOH for DBF assays) to the reaction mixture after incubation at 37° C. for a given amount of time. The fluorescence of metabolites was measured on a Biotek fluorescence reader. The results were expressed as inhibition percentage relative to the control (no test compound). IC50 values were estimated from the concentration response curve. […] Test compounds are classified into three categories based on their IC50 values.
Sequence of CYP2C9 (P11712 whole entry): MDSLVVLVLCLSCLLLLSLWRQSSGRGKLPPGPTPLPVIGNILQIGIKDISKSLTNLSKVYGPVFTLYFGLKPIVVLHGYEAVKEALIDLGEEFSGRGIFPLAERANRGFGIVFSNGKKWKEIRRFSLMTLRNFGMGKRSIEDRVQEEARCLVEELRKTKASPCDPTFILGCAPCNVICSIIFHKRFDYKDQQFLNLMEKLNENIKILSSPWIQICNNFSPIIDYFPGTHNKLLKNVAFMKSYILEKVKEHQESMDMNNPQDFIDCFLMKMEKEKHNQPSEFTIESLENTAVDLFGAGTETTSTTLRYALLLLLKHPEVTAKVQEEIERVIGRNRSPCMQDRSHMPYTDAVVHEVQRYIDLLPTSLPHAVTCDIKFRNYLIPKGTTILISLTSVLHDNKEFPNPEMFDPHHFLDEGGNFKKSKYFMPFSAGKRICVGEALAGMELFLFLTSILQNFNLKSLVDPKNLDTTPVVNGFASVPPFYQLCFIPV

Series [2] can be described thus: Solubility determination in water (HPLC). It counts as physicochemical. Particulars: thermodynamic from solid, about 25° C., equilibrated no less than 12 hours, read-out: aqueous solubility. The method, then: The vial contents were mixed for 30 seconds using a VWR mini vortexter followed by sonication (Branson 1510) for 1 minutes. Vials were placed into a constant temperature bath (i.e., about 25° C.) and allowed to equilibrate for no less than 12 hours. The resulting suspensions were transferred to eppendorf tubes each equipped with a 0.2 μm nylon filter (Costar 8168) and were centrifuged for 10 minutes at 14,000 rpms. The supernatant from each eppendorf tube was collected and diluted with HPLC grade acetonitrile with dilution factor of 200, 400 or 500. Each solution was analyzed by an HPLC method. […]
Quantification was effected by comparison of the HPLC peak area for each test solution with the peak area taken from a standard plot of concentration versus peak area for standards of known concentration. As is conventional, the standard concentrations for 4-[5-methyl-6-(2-methyl-pyridin-3-yloxy)-pyrimidin-4-yloxy]piperidine-1-carboxylic acid isopropyl ester were selected to fall within a linear range of concentration versus absorbance for the UV detector employed. […]

In series [3] the target is T1, CYP1A2 (Homo sapiens, UniProt P05177).
T1 sequence (P05177 1-516): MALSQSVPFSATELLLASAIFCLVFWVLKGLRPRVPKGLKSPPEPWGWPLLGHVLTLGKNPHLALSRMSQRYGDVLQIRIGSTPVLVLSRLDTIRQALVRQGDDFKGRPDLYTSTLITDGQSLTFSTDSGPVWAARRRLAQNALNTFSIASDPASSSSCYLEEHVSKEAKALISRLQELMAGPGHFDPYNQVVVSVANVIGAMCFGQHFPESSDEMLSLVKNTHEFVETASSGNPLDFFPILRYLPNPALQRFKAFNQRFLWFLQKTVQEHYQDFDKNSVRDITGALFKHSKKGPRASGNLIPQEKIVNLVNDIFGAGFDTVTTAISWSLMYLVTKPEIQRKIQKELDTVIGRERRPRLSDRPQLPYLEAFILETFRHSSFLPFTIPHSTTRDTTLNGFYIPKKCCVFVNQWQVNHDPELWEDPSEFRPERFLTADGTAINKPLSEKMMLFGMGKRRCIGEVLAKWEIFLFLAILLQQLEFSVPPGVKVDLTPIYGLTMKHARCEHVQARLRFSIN
As to the kind of experiment: P450 inhibition screening assay, CYP1A2. The series is classed as in vitro ADME. Particulars: cDNA expressed human enzyme, fluorescent substrate CEC. The method, then:
as §1

Series [4] has as its target CYP2D6 (Homo sapiens, UniProt P10635). The series can be described thus: P450 inhibition screening assay, CYP2D6. The series is classed as in vitro ADME. Conditions: cDNA expressed human enzyme, fluorescent substrate AMMC. The method, then: as §1
The target of series [5] is CYP2C19 (Homo sapiens, UniProt P33261). As to the kind of experiment: P450 inhibition screening assay, CYP2C19. The series is classed as in vitro ADME. Particulars: cDNA expressed human enzyme, fluorescent substrate DBF. As to the method:
as §1

Series [6] has as its target CYP3A4 (Homo sapiens, UniProt P08684). The series can be described thus: P450 inhibition screening assay, CYP3A4. The series is classed as in vitro ADME. Particulars: cDNA expressed human enzyme, fluorescent substrates. As to the method: as §1
Series [7] relates to Male Sprague Dawley rats. The series can be described thus: Oral glucose tolerance test (oGTT) in rats. The series is classed as in vivo. Particulars: rat oGTT, dextrose 3 g/kg. As to the method:
General Procedure—Oral Glucose Tolerance Test (oGTT)
Male Sprague Dawley rats (Harlan, San Diego, Calif.) weighing approximately 350-375 g were fasted for 16 hours and randomly grouped (n=6) to receive a RUP3 agonist at 0.3, 3 or 30 mg/kg. Compounds were delivered orally via a gavage needle (p.o., volume 2 mL/kg). At time 0, levels of blood glucose were assessed using a glucometer (Accu-Chek Advantage, Roche Diagnostics), and rats were administered either vehicle (20% hydroxypropyl-beta-cyclodextrin) or test compound. Thirty minutes after administration of test compound, levels of blood glucose were again assessed, and rats were administered dextrose orally at a dose of 3 g/kg. Blood glucose measurements were then taken 30 min, 60 min, and 120 min after this time.

Values after ≈ are worked out from the molar mass of the structure shown.

Sequence of CYP3A4 (P08684 whole entry): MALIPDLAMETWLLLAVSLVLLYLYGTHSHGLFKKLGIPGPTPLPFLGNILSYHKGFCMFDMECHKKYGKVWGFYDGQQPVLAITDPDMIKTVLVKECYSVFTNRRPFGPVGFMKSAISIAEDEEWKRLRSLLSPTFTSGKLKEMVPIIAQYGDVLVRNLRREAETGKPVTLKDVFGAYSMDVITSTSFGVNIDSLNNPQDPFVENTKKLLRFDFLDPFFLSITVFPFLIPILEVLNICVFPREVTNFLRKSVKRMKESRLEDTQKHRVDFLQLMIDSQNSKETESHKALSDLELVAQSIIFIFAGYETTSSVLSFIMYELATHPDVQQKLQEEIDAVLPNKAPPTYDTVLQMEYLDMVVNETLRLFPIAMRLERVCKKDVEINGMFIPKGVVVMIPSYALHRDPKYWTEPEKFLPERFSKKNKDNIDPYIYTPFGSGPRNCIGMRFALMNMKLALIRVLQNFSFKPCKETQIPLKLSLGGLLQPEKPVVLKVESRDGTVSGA
Sequence of CYP2D6 (P10635 whole entry): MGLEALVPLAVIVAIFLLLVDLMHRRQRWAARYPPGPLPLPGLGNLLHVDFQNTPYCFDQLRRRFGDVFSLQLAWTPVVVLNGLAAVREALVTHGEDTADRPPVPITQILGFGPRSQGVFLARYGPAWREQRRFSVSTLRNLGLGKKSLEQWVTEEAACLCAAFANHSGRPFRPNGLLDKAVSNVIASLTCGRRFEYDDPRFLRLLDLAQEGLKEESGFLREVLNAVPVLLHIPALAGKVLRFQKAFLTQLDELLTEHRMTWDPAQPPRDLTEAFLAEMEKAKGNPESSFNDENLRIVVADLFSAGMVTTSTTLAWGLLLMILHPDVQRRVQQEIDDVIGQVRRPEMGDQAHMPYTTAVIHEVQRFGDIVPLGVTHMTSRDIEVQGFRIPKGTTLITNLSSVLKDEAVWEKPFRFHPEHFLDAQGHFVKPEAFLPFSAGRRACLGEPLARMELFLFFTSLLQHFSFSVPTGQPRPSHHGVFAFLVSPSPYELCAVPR
Sequence of CYP2C19 (P33261 whole entry): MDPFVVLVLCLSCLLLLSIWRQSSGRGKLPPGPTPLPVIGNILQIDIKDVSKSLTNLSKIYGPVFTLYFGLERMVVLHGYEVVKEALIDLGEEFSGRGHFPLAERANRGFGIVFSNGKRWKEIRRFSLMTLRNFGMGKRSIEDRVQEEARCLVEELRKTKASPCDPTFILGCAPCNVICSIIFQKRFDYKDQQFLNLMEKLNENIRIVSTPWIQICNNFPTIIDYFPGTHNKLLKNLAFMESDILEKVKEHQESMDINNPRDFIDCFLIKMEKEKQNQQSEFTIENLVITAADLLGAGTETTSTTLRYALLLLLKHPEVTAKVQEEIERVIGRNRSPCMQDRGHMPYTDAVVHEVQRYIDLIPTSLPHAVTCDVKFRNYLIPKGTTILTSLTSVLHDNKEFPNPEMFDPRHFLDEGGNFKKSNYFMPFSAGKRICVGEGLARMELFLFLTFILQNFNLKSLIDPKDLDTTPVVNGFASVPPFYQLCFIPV

The term IC50 denotes the concentration that inhibits the measured activity by half. What is called solubility is the dissolved amount per volume that the medium holds. For the compound `Cc1ncccc1Oc1ncnc(OC2CCN(C(=O)OC(C)C)CC2)c1C` [4-[5-methyl-6-(2-methyl-pyridin-3-yloxy)-pyrimidin-4-yloxy]-piperidine-1-carboxylic acid isopropyl ester], the half-inhibitory concentration (IC50) is greater than 15 µM in series [1]; greater than 40 µM in series [3]; greater than 40 µM in series [4]; roughly 10 µM in series [5]; greater than 40 µM in series [6]. Further, the solubility in series [2] is roughly 40 mg/mL (≈ 104 mM). The entries for the “Mean % Inhibition of Glucose Excursion” value in series [7] (0.3 mg/Kg p.o.), in series [7] (3 mg/Kg p.o.) and in series [7] (30 mg/Kg p.o.) were 22%, 24% and 70%, respectively.
